Data from the NIST ThermoML archive (doi:10.1016/j.jct.2012.07.018).

Tests used:
[1] = molar heat capacity at constant pressure; conditions: Liquid, Flow calorimetry
[2] = molar heat capacity at constant pressure; xn = mol fraction of the nth substance listed; conditions: 313.15 K, Liquid, Flow calorimetry

C1CCCCC1 [cyclohexane]
molar heat capacity at constant pressure [J/K/mol], [1]
Conditions | 100 kPa | 5000 kPa | 10000 kPa | 15000 kPa | 20000 kPa
293.15 K | 154.1 | 152 | 151.1 | 149.9 | 148.7
313.15 K | 162.7 | 160.7 | 158.8 | 157.3 | 155.9
333.15 K | 171 | 169.1 | 166.8 | 164.9 | 163.4

C1CCCCC1 [cyclohexane] + C=CCCCC
[2], x1 = 1
Conditions | molar heat capacity at constant pressure [J/K/mol]
100 kPa | 162.7
5000 kPa | 160.7
10000 kPa | 158.8
15000 kPa | 157.3
20000 kPa | 155.9

C1CCCCC1 [cyclohexane] + CCO
molar heat capacity at constant pressure [J/K/mol], [2]
Conditions | x1 = 0.1 | x1 = 0.1999 | x1 = 0.2999 | x1 = 0.4 | x1 = 0.5002 | x1 = 0.6 | x1 = 0.7002 | x1 = 0.8 | x1 = 0.8999 | x1 = 1
100 kPa | 127.8 | 134.2 | 140.2 | 146.9 | 152.7 | 158.2 | 163.3 | 167.6 | 169.9 | 162.7
5000 kPa | 126.5 | 132.9 | 138.8 | 145.2 | 151 | 155.9 | 161 | 165.2 | 167.3 | 160.7
10000 kPa | 125 | 131 | 137.1 | 143.1 | 149 | 154 | 159 | 163.1 | 165.5 | 158.8
15000 kPa | 123.7 | 130.2 | 135.7 | 141.3 | 147 | 152.9 | 157.6 | 161.3 | 163.3 | 157.3
20000 kPa | 122.8 | 129.5 | 134.9 | 140.7 | 146.6 | 149 | 156.3 | 160.5 | 162.5 | 155.9

CCO [ethanol]
[1], 313.15 K
Conditions | molar heat capacity at constant pressure [J/K/mol]
100 kPa | 119.2
5000 kPa | 118
10000 kPa | 116.8
15000 kPa | 115.5
20000 kPa | 114.9

CCO [ethanol] + C1CCCCC1
[2], x2 = 0
Conditions | molar heat capacity at constant pressure [J/K/mol]
100 kPa | 119.2
5000 kPa | 118
10000 kPa | 116.8
15000 kPa | 115.5
20000 kPa | 114.9

CCO [ethanol] + C=CCCCC
[2], x2 = 0
Conditions | molar heat capacity at constant pressure [J/K/mol]
100 kPa | 119.2
5000 kPa | 118
10000 kPa | 116.8
15000 kPa | 115.5
20000 kPa | 114.9

C=CCCCC [hex-1-ene]
molar heat capacity at constant pressure [J/K/mol], [1]
Conditions | 100 kPa | 5000 kPa | 10000 kPa | 15000 kPa | 20000 kPa
273.15 K | 177.2 | 170.8 | 168.3 | 166.3 | 165.3
293.15 K | 184.8 | 178.6 | 175.1 | 172.6 | 172.1
313.15 K | 190.7 | 186.6 | 182.9 | 180.4 | 178.2

C=CCCCC [hex-1-ene] + C1CCCCC1
molar heat capacity at constant pressure [J/K/mol], [2]
Conditions | x2 = 0 | x2 = 0.1 | x2 = 0.2 | x2 = 0.2999 | x2 = 0.4001 | x2 = 0.5 | x2 = 0.6001 | x2 = 0.7 | x2 = 0.8 | x2 = 0.9
100 kPa | 190.7 | 187.6 | 184.3 | 181.3 | 178 | 175.2 | 172.5 | 169.7 | 167.2 | 165.1
5000 kPa | 186.6 | 181.3 | 180.5 | 176.8 | 174.2 | 171.6 | 169.6 | 167.3 | 163.8 | 162.2
10000 kPa | 182.9 | 179.7 | 176.9 | 173.9 | 172.2 | 169.1 | 167 | 164.9 | 162.3 | 160
15000 kPa | 180.4 | 177.2 | 174.8 | 171.7 | 169.9 | 167.6 | 165.4 | 163.3 | 160.2 | 158.1
20000 kPa | 178.2 | 175.4 | 173.5 | 170.8 | 168.6 | 166.2 | 163.9 | 162.1 | 159.6 | 157.9

C=CCCCC [hex-1-ene] + CCO
molar heat capacity at constant pressure [J/K/mol], [2]
Conditions | x1 = 0.0999 | x1 = 0.2 | x1 = 0.3 | x1 = 0.3998 | x1 = 0.4998 | x1 = 0.6 | x1 = 0.7001 | x1 = 0.8003 | x1 = 0.9003 | x1 = 1
100 kPa | 130.7 | 142 | 152 | 161.5 | 171.8 | – | 186.4 | 192.3 | 197 | 190.7
5000 kPa | 129 | 139.8 | 149.7 | 158.9 | 167.9 | 175.4 | 182.2 | 188.7 | 191.2 | 186.6
10000 kPa | 127.3 | 138 | 147.2 | 156.2 | 165.1 | 172.6 | 179 | 184.7 | 188.5 | 182.9
15000 kPa | 126 | 136.6 | 145.7 | 153.7 | 163.1 | 170.2 | 176.3 | 181.6 | 185.1 | 180.4
20000 kPa | 125 | 135.4 | 144.3 | 152.9 | 161.4 | 168.4 | 174.7 | 178.5 | 183.4 | 178.2
